Measurements as given in US20220218725A1, “METHODS AND MATERIALS FOR TREATING CANCER” (Mayo Foundation for Medical Education and Research, priority 2019, published 2022).

Test system: JeKo-1 cells
Assay: Cell viability, Annexin V/PI assay (also IC50 and combination index)
Assay type: cell-based
Protocol: To assess apoptosis and cellular proliferation, all cell lines were treated with CRM 1 inhibitors (concentration ranging from 0.05-2 μM) and salicylates at concentrations ranging from (0.001-10 mM) for 48 hours before analysis was performed. DMSO was used to substitute the drug in controls.
After 48 hours incubation, cells were washed with Annexin buffer solution and stained with both propidium iodide (PI) and FITC-Annexin V (Life Technologies), and assayed on a BD Accuri flow cytometer (BD Biosciences). Apoptosis results were analyzed with BD CellQuest software. For cell cycle analysis, Jeko-1 cell line was intubated with CRM 1 inhibitors (concentrations ranging from […]) and salicylates (concentration at 3 mM) and Ly-1 cell line was intubated with CRM 1 inhibitors (concentrations ranging from 0.1-2.0 μM) and salicylates (concentration at 0.5-5 mM) for 24 and 48 hours and then fixed with 95% cold ethanol and kept at 4 C° for 24 h and subsequently underwent cell cycle analysis after PI staining and analysis was performed using BD FACS caliber flow cytometer (BD Biosciences) and FlowJo software (Tree Star).
Cell lines were purchased from the cell line repositories ATCC (Manassas, Va.) or DSMZ (Braunschweig, Germany). These included MCL cell lines: JeKo-1, Mino; TCL cell lines: Karpas-299, SR-786; DLBCL cell lines: OCI-Ly1 (LY-1), OCI-Ly3 (LY-3), OCI-Ly19 (LY-19), SU-DHL-6 (DHL-6); MM cell lines: RPMI, U266, OPM2, Xgl, KMS2; ALL cell lines: CRL-1783; non-small cell lung cancer: NCI-H460, A549, HCC827; small cell lung cancer: H1048; sarcoma: Fuji, SW872. Cell lines were cultured according to instruction.
KPT-330 purchased from Selleckchem (cat no: S7252) was dissolved in DMSO while CS (Santa Cruz, Calif.S 2016-36-6), sodium salicylate (Sigma-Aldrich, cat no: S3007), acetyl salicylate (Sigma-Aldrich, cat no: CAS 50-78-2) was diluted in PBS. Ketorolac (Sigma-Aldrich, cat no: 1356665), Bortezomib (Selleckchem, cat no: S1013), gemcitabine (Sigma-Aldrich, cat no: G6423), Leptomycin-B (Sigma-Aldrich, cat no: L2913-2X) and KPT-185 (Selleckchem, cat no: S7125) were dissolved in DMSO. The concentration range of KPT-330 was 0.05-1.0 μM while CS was 1-3 mM were used for ex vivo treatment and incubation time ranged from 24 hours to 72 hours. For the PARP inhibitor assay, olaparib 10 μM (SelleckChem, cat no: AZD2281 Ku-0059436) was used.
The viability assessment for cell lines and primary patients samples were conducted with the Annexin V/PI method.
Jeko-1 and OCI-Ly1 cell lines were used to assess the IC50. Keeping CS at 3 mM, KPT-330 was titrated. Relative IC50 was calculated as described elsewhere (see, e.g., Sebaugh et al., Pharmaceutical statistics 10:128-134 (2011)). The combination index was calculated as described elsewhere (see, e.g., Chou et al., Cancer Res 70:440-446 (2010)).

O=C(c1cc(Cc2n[nH]c(=O)c3ccccc23)ccc1F)N1CCN(C(=O)C2CC2)CC1 [Olaparib, olaparib]
antitumor activity with PARP inhibitor (JeKo-1, olaparib 10 μM, KPT-330 0.5 μM, CS 3 mM, 48 h, AnnexinV/PI): did not have any antitumor activity

CC(C)[C@H](NC(=O)c1ccc2ccccc2n1)C(=O)N[C@@H](CC(=O)O)C(=O)COc1c(F)cccc1F [Q-VD-OPh]
effect of pan-caspase inhibitor on K+CS induced cell death (JeKo-1, 48 hours, KPT-330 0.5 μM and CS 3 mM): rescued cells from K+CS induced cell death

Cc1cn([C@H]2C[C@H](O)[C@@H](CO)O2)c(=O)[nH]c1=O [thymidine]
cell viability after K+CS treatment with exogenous thymidine (JeKo-1 in thymidine-free media, 0.5 μM KPT-330, 3 mM CS, 10 μM thymidine, 48 hours): statistically significant increase in cell viability
